Columns and labels:
[1] = xn = mol fraction of the nth substance listed; details: 101 kPa, Liquid, x2 = 0
[2] = 101 kPa, Liquid

O [water] + OCCOCCO
[1]
Details | mass density [kg/m3] | viscosity [mPa·s]
283.15 K | 999.7 | –
293.15 K | – | 1.013
303.15 K | 995.55 | 0.811
313.15 K | – | 0.667
323.15 K | 988.03 | 0.561
328.15 K | 985.69 | –
333.15 K | 983.19 | 0.477
338.15 K | 980.55 | –
343.15 K | 977.76 | 0.413
348.15 K | 974.84 | –
353.15 K | 971.79 | 0.362

OCCOCCO [diethylene glycol]
[2]
Details | mass density [kg/m3] | viscosity [mPa·s]
283.15 K | 1124.24 | –
288.15 K | 1120.65 | –
293.15 K | 1117.05 | 36.43
298.15 K | 1113.47 | –
303.15 K | 1109.88 | 22.09
308.15 K | 1106.29 | –
313.15 K | 1102.7 | 14.56
318.15 K | 1099.11 | –
323.15 K | 1095.51 | 10.03
328.15 K | 1091.91 | –
333.15 K | 1088.3 | 7.22
338.15 K | 1084.68 | –
343.15 K | 1081.05 | 5.369
348.15 K | 1077.4 | –
353.15 K | 1073.74 | 4.139

Reference: the NIST ThermoML archive (doi:10.1021/je700672f)
